From US8357350B2, “Annulus fibrosus detection in intervertebral discs using molecular imaging agents” (General Electric Company, priority 2009, dated 2013)

Experiments:
[1] = Absorbance and fluorescence spectra of FM fluorophores in solvents; format: physicochemical
Procedure: Absorbance and fluorescence spectra of the FM fluorophores were measured in PBS and absolute methanol (MeOH) using fiber-optic HR2000 (200-1100 nm) and USB2000FL (350-1000 nm) spectrometers (Ocean Optics, Dunedin, Fla.), respectively. Fluorescence excitation was provided by a 2 mW, 532 nm laser diode. The fluorescence and absorbance spectra of FORMULA II and FORMULA IA were collected in dimethyl sulfoxide (DMSO) and fetal bovine serum (FBS), as well as MeOH and PBS. The quantum yield of FORMULA II and FORMULA IA in DMSO, MeOH, FBS and PBS was measured by comparing the integrated fluorescence emission of the fluorophores in each solvent to the emission of Alexa Fluor 555 (Invitrogen) in PBS (quantum yield=10%) as a reference standard under conditions of matched absorbance at the excitation wavelength. The LogD of each FM fluorophore at pH 7.5 was calculated using Marvin 5.0.3 software (ChemAxon, Budapest, Hungary).

dorsal root ganglia = assay: FM fluorophore uptake, intraoperative fluorescence imaging; format: in vivo, mice and rats; conditions: 5 mg/kg mice, 0.5 mg/kg rats IP, 16 hours before imaging; signal normalized to muscle, vs vehicle control; further: key: +: Positive contrast was concluded if the nerve-to-muscle contrast ratio of FM fluorophore-injected animals was elevated relative to control animals
Procedure: (§1) Imaging was carried out at near infrared wavelenghts using a 400- to 700-nm “white” light (0.5 mW/cm^2) and a 725- to 775-nm NIR fluorescence excitation light (5 mW/cm^2). Fluorescence images were collected using exposure times ranging from 500 to 2000 msec. All images collected for comparison between vehicle-injected control animals and FM fluorophore-injected animals had the same exposure time and normalization. Color video images were collected on a separate optical channel using custom designed software. The excitation and emission LEDs and filter used for the FM fluorophores and Pam800 in the intraoperative imaging system are described as follows. For fluorescence excitation of FM 1-43, FM 2-10, FM 1-43FX and Formula IA, sixty 5-mm 470 nm LEDs ([…], Inc., Kyoto, Japan) fitted with 470±20 nm band pass (BP) excitation filters (Chroma Technology, Rockingham, Vt.) in custom holders were used, which produced a fluence rate on the imaging surface of 0.56 mW/cm^2. For fluorescence excitation of Formula II, FM 4-64, FM 4-64FX and FM 5-95, sixty 5-mm 535 nm LEDs fitted with 525±25 nm BP excitation filters were used, which produced a fluence rate on the imaging surface of 0.34 mW/cm^2. A 610±38 nm BP filter was used to detect fluorescence emission of FM 1-43, FM 2-10, Formula II, FM 1-43FX and Formula IA. To detect fluorescence emission of FM 4-64, FM 4-64FX and FM 5-95 a 720 nm long pass (LP) filter was used. For fluorescence excitation of Pam800, 348 5-mm 760 nm LEDs fitted with 764±17 nm BP excitation filters were used, which produced a fluence rate on the imaging surface of 8.73 mW/cm^2 and fluorescence emission was detected using a 824±24 nm BP emission filter. To assess the structure-activity relationship of the FM fluorophores, each molecule was administered at 5 mg/kg to mice and 0.5 mg/kg to rats (n=4 per group) in 10% DMSO and 90% PBS IP 16 hours before imaging with the intraoperative system. The fluorescence signal from the spinal cord, intervertebral discs, dorsal root ganglia, trigeminal ganglia, optic nerve, brain and femoral nerve were normalized to muscle signal in the same image. This normalization ratio was then compared between FM fluorophore-injected animals and vehicle-injected control animals.

intervertebral discs [2] = assay: as above; format: in vivo, mice and rats
Procedure: as §1

trigeminal ganglia = assay: as above; format: in vivo, mice and rats; conditions: 5 mg/kg mice, 0.5 mg/kg rats IP, 16 hours before imaging; signal normalized to muscle, vs vehicle control; further: key: +: Positive contrast was concluded if the nerve-to-muscle contrast ratio of FM fluorophore-injected animals was elevated relative to control animals
Procedure: as §1

intervertebral discs [3] = assay: Two-wavelength imaging of resected spine with Pam800 and FORMULA IA; format: in vivo, Sprague-Dawley rat; conditions: rat
Procedure: Imaging was carried out at near infrared wavelenghts using a 400- to 700-nm “white” light (0.5 mW/cm^2) and a 725- to 775-nm NIR fluorescence excitation light (5 mW/cm^2). Fluorescence images were collected using exposure times ranging from 500 to 2000 msec. All images collected for comparison between vehicle-injected control animals and FM fluorophore-injected animals had the same exposure time and normalization. Color video images were collected on a separate optical channel using custom designed software. The excitation and emission LEDs and filter used for the FM fluorophores and Pam800 in the intraoperative imaging system are described as follows. For fluorescence excitation of FM 1-43, FM 2-10, FM 1-43FX and Formula IA, sixty 5-mm 470 nm LEDs (Epitex, Inc., Kyoto, Japan) fitted with 470±20 nm band pass (BP) excitation filters (Chroma Technology, Rockingham, Vt.) in custom holders were used, which produced a fluence rate on the imaging surface of 0.56 mW/cm^2. For fluorescence excitation of Formula II, FM 4-64, FM 4-64FX and FM 5-95, sixty 5-mm 535 nm LEDs fitted with 525±25 nm BP excitation filters were used, which produced a fluence rate on the imaging surface of 0.34 mW/cm^2. A 610±38 nm BP filter was used to detect fluorescence emission of FM 1-43, FM 2-10, Formula II, FM 1-43FX and Formula IA. […]
Wherever Uptake: Intervertebral Disc is given: key: +: Positive contrast was concluded if the nerve-to-muscle contrast ratio of FM fluorophore-injected animals was elevated relative to control animals.

## CCCCN(CCCC)c1ccc(/C=C/c2cc[n+](CCC[N+](C)(C)C)cc2)cc1.[Br-].[Br-] [Formula IA, (E)-4-(4-(dibutylamino)styryl)-1-(3-(trimethylammonio)propyl)pyridinium dibromide]
[1]; emission maximum in MeOH
  Em nm (MeOH): 624 nm
[1]; emission maximum in PBS
  Em nm (PBS): 628 nm
[1]; excitation maximum in MeOH
  Ex nm (MeOH): 510 nm
[1]; excitation maximum in PBS
  Ex nm (PBS): 497 nm
Dorsal root ganglia
  Uptake: Dorsal Root Ganglia: +
Intervertebral discs [2]; 5 mg/kg mice, 0.5 mg/kg rats IP, 16 hours before imaging, signal normalized to muscle, vs vehicle control
  Uptake: Intervertebral Disc: +
Intervertebral discs [2]; IP administration to mice and rats
  contrast in the intervertebral discs: positive contrast
Trigeminal ganglia
  Uptake: Trigeminal Ganglia: +
Intervertebral discs [3]; 7.5 nmol Pam800 16 h and 2 mg/kg Formula IA 4 h post-IV
  overlap of signals with Pam800 (bone): no overlap
Intervertebral discs [3]; 2 mg/kg IV, 4 h, sagittal spine and disc cross-section
  specificity of fluorescence signal in the spine: specific for the intervertebral discs
